From the Kinase Knowledgebase extract (Sharma et al. 2016) come the findings set out here.

One may read the IC50 as the concentration that inhibits the measured activity by half. A low value points to higher potency.

Each structure is given as a SMILES string.

Assay [1] has as its target PIK3CA (human) (UniProt P42336). The assay is described as follows: Enzyme Assay.
Assay [2] addresses PIK3CD (Human) (UniProt O00329). The assay is described as follows: Enzyme Assay.
Assay [3] deals with PIK3CG (human) (UniProt P48736). Description: Enzyme Assay.
PIK3CG (human), sequence (P48736 whole entry, looked up): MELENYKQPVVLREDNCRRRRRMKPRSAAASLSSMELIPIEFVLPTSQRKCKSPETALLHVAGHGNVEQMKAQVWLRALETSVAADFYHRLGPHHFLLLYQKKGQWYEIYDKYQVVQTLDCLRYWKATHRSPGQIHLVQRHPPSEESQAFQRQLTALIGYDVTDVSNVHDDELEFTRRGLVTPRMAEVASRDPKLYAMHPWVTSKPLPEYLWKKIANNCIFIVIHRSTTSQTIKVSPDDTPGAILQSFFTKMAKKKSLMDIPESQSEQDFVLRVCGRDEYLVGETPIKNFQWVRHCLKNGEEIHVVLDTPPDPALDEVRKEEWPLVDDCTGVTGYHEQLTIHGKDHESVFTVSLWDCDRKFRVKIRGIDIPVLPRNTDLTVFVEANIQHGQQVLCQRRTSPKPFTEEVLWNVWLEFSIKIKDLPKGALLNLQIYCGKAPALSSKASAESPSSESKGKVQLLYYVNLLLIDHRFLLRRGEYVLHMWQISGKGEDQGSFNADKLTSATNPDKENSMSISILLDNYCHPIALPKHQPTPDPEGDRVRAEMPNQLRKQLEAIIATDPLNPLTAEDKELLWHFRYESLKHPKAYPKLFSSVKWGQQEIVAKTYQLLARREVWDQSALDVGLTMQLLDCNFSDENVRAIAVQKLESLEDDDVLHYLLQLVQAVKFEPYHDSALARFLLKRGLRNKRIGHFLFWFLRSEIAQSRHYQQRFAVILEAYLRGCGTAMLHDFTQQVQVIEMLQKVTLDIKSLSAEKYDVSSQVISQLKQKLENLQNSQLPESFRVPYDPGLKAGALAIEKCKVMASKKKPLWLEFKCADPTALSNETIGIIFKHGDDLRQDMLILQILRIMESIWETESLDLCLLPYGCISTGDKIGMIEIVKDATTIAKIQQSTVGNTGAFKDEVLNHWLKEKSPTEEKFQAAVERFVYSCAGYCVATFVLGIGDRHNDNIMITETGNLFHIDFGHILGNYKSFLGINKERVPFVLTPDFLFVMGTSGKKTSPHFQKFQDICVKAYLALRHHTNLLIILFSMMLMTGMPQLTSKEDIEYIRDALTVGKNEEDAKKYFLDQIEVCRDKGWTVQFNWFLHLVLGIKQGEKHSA
For assay [4], the target named is PIK3CA (human) (UniProt P42336). Description: Cell-Based Assay. The note with it: rat-1.
PIK3CA (human), sequence (P42336 whole entry, looked up): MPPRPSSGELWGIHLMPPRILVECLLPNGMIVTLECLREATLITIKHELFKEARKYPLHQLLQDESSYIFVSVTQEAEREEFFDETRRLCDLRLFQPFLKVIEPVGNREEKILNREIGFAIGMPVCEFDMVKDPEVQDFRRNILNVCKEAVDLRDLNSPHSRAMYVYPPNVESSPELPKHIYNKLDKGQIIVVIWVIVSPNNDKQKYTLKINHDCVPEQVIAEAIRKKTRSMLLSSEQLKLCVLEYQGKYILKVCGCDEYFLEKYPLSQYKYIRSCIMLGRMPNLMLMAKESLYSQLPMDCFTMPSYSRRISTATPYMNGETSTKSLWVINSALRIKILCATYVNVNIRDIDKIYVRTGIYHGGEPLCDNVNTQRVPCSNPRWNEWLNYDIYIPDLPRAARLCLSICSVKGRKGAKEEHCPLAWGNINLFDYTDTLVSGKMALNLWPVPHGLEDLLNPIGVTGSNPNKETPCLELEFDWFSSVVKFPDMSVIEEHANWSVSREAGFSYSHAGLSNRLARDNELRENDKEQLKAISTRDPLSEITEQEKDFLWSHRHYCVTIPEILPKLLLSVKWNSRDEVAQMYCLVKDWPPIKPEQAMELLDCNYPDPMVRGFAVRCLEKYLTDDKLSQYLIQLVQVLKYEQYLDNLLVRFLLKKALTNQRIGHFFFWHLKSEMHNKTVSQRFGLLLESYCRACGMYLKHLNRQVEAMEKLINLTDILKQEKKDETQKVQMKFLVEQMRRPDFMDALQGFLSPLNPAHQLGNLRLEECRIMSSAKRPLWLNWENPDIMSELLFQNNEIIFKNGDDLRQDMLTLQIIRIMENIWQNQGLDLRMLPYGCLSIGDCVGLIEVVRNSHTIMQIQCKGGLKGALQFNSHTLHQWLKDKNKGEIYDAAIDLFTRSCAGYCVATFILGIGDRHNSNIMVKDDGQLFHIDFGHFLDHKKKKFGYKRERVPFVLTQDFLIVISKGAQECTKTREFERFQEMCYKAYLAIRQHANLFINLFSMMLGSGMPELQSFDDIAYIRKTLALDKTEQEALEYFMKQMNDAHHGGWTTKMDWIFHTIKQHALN
The target in assay [5] is PIK3CD (Human) (UniProt O00329). Description: Cell-Based Assay. The following applies: rat-1.
PIK3CD (Human), sequence (O00329 whole entry, looked up): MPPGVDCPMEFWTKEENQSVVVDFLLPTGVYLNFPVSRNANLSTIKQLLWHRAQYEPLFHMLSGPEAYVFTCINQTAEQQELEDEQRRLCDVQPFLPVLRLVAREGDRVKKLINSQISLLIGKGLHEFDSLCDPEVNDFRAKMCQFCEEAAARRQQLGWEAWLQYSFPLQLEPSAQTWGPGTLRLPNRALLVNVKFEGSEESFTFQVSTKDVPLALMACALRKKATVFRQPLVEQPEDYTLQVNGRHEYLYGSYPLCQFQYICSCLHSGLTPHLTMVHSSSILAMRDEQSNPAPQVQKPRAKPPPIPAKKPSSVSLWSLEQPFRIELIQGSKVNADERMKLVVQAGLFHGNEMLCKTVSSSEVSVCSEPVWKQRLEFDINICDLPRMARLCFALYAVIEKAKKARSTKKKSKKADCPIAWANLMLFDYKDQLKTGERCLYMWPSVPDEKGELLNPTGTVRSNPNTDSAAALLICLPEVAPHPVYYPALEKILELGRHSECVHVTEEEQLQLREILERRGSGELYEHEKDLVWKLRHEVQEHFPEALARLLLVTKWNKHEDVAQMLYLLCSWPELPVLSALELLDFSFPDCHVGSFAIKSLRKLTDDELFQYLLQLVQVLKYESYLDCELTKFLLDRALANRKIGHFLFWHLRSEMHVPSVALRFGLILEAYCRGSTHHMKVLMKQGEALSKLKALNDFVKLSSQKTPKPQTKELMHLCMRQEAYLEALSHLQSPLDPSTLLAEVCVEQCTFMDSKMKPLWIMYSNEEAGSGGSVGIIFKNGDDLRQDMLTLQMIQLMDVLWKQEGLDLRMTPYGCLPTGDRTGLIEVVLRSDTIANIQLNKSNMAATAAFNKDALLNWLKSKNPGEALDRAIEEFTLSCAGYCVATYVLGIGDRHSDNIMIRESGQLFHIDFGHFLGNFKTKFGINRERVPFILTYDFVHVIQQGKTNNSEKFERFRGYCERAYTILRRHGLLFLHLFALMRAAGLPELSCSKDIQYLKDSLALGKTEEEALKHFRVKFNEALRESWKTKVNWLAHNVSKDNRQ

As for `N#Cc1c(N)ncnc1N1CCC[C@H]1c1nc2cccc(Cl)c2c(=O)n1N1CCOCC1`, the IC50 in assay [1] is 1.6 µM; in assay [2], 0.011 µM; in assay [3] it was 0.2 µM; in assay [4], greater than 10 µM; in assay [5] it was 0.02 µM.
For `O=c1c2c(Cl)cccc2nc([C@@H]2CCCN2c2ncnc3[nH]cnc23)n1C1CCOCC1`, the IC50 is 4.55 µM in assay [1]; 0.059 µM in assay [2]; 0.295 µM in assay [3]; greater than 10 µM in assay [4]; 0.179 µM in assay [5].
For the compound `Cc1nc(N)nc(N2CCC[C@H]2c2nc3ccc(F)c(F)c3c(=O)n2-c2ccccc2)c1C#N`, the IC50 is 0.6 µM in assay [1]; 0.014 µM in assay [2]; 0.041 µM in assay [3]; greater than 10 µM in assay [4]; less than 0.003 µM in assay [5].
Regarding `N#Cc1c(N)ncnc1N1CCC[C@H]1c1nc2cc(F)cc(F)c2c(=O)n1-c1ccccc1`, the IC50 in assay [1] is greater than 10 µM; in assay [2] it was 0.043 µM; in assay [3], greater than 10 µM; in assay [4], greater than 10 µM; in assay [5], 0.292 µM.
As for `Cc1ccccc1-n1c([C@@H]2CSCN2c2ncnc(N)c2C#N)nc2cccc(Cl)c2c1=O`, the IC50 turned out to be 6.82 µM in assay [1]; 0.011 µM in assay [2]; 0.148 µM in assay [3]; 4.47 µM in assay [4]; 0.038 µM in assay [5].
`Cc1c(F)ccc2nc([C@@H]3CCCN3c3ncnc(N)c3C#N)n(-c3ccccc3)c(=O)c12`: the 50% inhibitory concentration (IC50) was found to be 0.7 µM in assay [1]; 0.011 µM in assay [2]; 0.12 µM in assay [3]; 7.16 µM in assay [4]; 0.025 µM in assay [5].
On the same counts, the results for `O=c1c2c(Cl)cccc2nc([C@@H]2CCCN2c2ncnc3[nH]cnc23)n1-c1cccnc1` are 3.3 µM, 0.02 µM, 0.17 µM, greater than 10 µM and 0.084 µM.
On the same counts, the results for `N#Cc1c(N)ncnc1N1CCC[C@H]1c1nc2cccc(Cl)c2c(=O)n1C1CCOCC1` are 4.7 µM, 0.008 µM, 0.28 µM, greater than 10 µM and 0.036 µM.
`O=c1c2c(Cl)cccc2nc([C@@H]2CCCN2c2ncnn3ccnc23)n1-c1ccccc1`: the IC50 in assay [1] was found to be 4.67 µM; in assay [2] it was 0.034 µM; in assay [3] it was 0.103 µM; in assay [4], 5.15 µM; in assay [5], 0.056 µM.
For `CO[C@H]1C[C@@H](c2nc3cccc(Cl)c3c(=O)n2N2CCOCC2)N(c2ncnc(N)c2C#N)C1`, the IC50 in assay [1] is 4 µM; in assay [2], 0.066 µM; in assay [3] it was 0.38 µM; in assay [4] it was greater than 10 µM; in assay [5], 0.032 µM.
On the same counts, the results for `CO[C@H]1C[C@@H](c2nc3cccc(Cl)c3c(=O)n2N2CCOCC2)N(c2nc(N)nc(C)c2C#N)C1` are 1.23 µM, 0.023 µM, 0.053 µM, greater than 10 µM and 0.029 µM.
As for `CC1(n2c([C@@H]3CCCN3c3nc(N)nc4[nH]cnc34)nc3cccc(Cl)c3c2=O)CC1`, the concentration for half-maximal inhibition (IC50) in assay [1] was determined as 1.03 µM; in assay [2], 0.026 µM; in assay [3] it was 0.058 µM; in assay [4], 3.3 µM; in assay [5], 0.032 µM.
As to `N#Cc1cnc(N)nc1N1CCC[C@H]1c1nc2cccc(C(F)(F)F)c2c(=O)n1-c1ccccc1`, the IC50 is 3.1 µM in assay [1]; 0.023 µM in assay [2]; 0.23 µM in assay [3]; greater than 10 µM in assay [4]; less than 0.003 µM in assay [5].
As to `Cn1cnc2c(N3CCC[C@H]3c3nc4cccc(Cl)c4c(=O)n3C3CC3)nc(N)nc21`, the 50% inhibitory concentration (IC50) turned out to be 5.95 µM in assay [1]; 1.43 µM in assay [2]; 0.445 µM in assay [3]; 5.46 µM in assay [4]; 0.894 µM in assay [5].
On the same counts, the results for `Cc1ccc(-n2c([C@@H]3CSCN3c3ncnc(N)c3C#N)nc3cccc(Cl)c3c2=O)s1` are greater than 10 µM, 0.082 µM, 1.1 µM, greater than 10 µM and 0.262 µM.
`N#Cc1c(N)ncnc1N1CCC[C@H]1c1nc2cccc(Cl)c2c(=O)n1N1CCCCC1`: the IC50 in assay [1] is greater than 10 µM; in assay [2], 0.12 µM; in assay [3], 3.2 µM; in assay [4], greater than 10 µM; in assay [5], 0.278 µM.
For `N#Cc1c(N)ncnc1N1C[C@@H](O)C[C@H]1c1nc2cccc(C(F)(F)F)c2c(=O)n1-c1ccccc1`, the concentration for half-maximal inhibition (IC50) in assay [1] is 1.8 µM; in assay [2], 0.008 µM; in assay [3], 0.066 µM; in assay [4], greater than 10 µM; in assay [5], 0.003 µM.
